In patent publication US20240358693A1, “METHODS OF TREATING PAIN” (Aisa Pharma, Inc., priority 2023, published 2024):

System: participants with SSc-RP
Assay: Scleroderma Health Assessment Questionnaire (SHAQ): disability indices and visual analog scales
Type: in vivo, human
Settings: Day 12
Excerpt: The standard, validated, patient reported outcome measures tool for SSc patients, the Scleroderma Health Assessment Questionnaire (SHAQ), will be used to assess the participant qualify of life. Details are attached in the Appendix. The participant quality of life will be scored, and a disability index calculated for each questionnaire completed by the patient at Screening and each in-clinic visit. The absolute change in participant quality of life from baseline to the end of each dosing period will be calculated similar to frequency data as before.
The SHAQ includes a Raynaud's VAS, which will be reported at screening and each in-clinic visit. The absolute change in Raynaud-VAS, assessed by the participants response to the SHAQ question ‘In the past 7 days, how much have your Raynaud's interfered with your daily activities?’ at baseline and the end of each dosing period will be calculated similar to frequency data as before.
The SHAQ is used to calculate a Disability Index to assess the participant qualify of life. The eight categories assessed by the Disability Index are 1) dressing and grooming, 2) arising, 3) eating, 4) walking, 5) hygiene, 6) reach, 7) grip, and 8) common daily activities. For each of these categories, patients report the amount of difficulty they have in performing two or three specific activities.
There are four possible responses for the Disability Index questions: • Without any difficulty=0 • With some difficulty=1 • With much difficulty=2 • Unable to do=3. • The highest score reported by the patient for any component question of the eight categories determines the score for that category. • If a component question is left blank or the response is too ambiguous to assign a score, then the score for that category is determined by the remaining completed question(s). • If all component questions are blank or if more than one answer is given, then follow up with the respondent is required. • If the respondent's mark is between the response columns, then move it to the closest one. If it's directly between the two, move it to the higher one.
Each of the disability items on the SHAQ has a companion aids/devices variable that is used to record what type(s) of assistance, if any, the participant uses for his/her usual activities. These variables (see below) are coded as follows: • 0=No assistance is needed. • 1=A special device is used by the patient in his/her usual activities. • 2=The patient usually needs help from another person. • 3=The patient usually needs BOTH a special device AND help from another person.
The scoring variables and scoring rules permit the computation of two disability indices, the Standard Disability Index and the Alternative Disability Index.
This question results in a new set of category scores that are computed by adjusting the score for each category, if necessary, based on the patient's use of an aid or device or assistance for that category. If either devices and/or help from another person are checked for a category, the score is set to “2”, unless the score is already “3” (i.e., scores of “0” or “1” are increased to “2”). For example, if the highest score for the dressing category is “1”, and the patient says they use a device for dressing, the computed category score would be “2”. The sum of the computed categories scores is then calculated and divided by the number of categories answered. This gives a score in the 0 to 3 range.
The aid and device variables are not used to calculate the alternative disability index; it is calculated by adding the scores for each of the categories and dividing by the number of categories answered. This gives a score in the 0 to 3 range.
The standard, validated, patient reported outcome measures tool for SSc patients, the SHAQ, was collected at the time points specified in the study schedules (FIG. 2 and FIGS. 4A and 4B) to assess the participant's quality of life. The SHAQ included a Raynaud's VAS that will also be reported separately.

[1] = Pooled Cilnidipine 20 mg and Cilnidipine 20 mg + Tadalafil 5 mg (N = 8), PP Population Part A
[2] = Pooled Cilnidipine (N = 8), PP Population Part A
[3] = mITT Part A, SSc patients, cilnidipine 10 mg and/or tadalafil 5 mg as in the arm

With `COCCOC(=O)C1=C(C)NC(C)=C(C(=O)OC/C=C/c2ccccc2)C1c1cccc([N+](=O)[O-])c1` (stereo not shown) [Cilnidipine, cilnidipine] the “SHAQ Visual Analogue Scale - Pain, Change from Baseline, Median” value [1] was −0.500, the “SHAQ Visual Analogue Scale - Pain, Percent Change from Baseline, Mean” value [1] was −25.85% and the “SHAQ Visual Analogue Scale - Pain, Percent Change from Baseline, Median” value [1] was −48.78%. The “SHAQ Visual Analogue Scale - Raynaud's, Change from Baseline, Mean” value [1] was −1.013, the “SHAQ Visual Analogue Scale - Raynaud's, Change from Baseline, Median” value [1] was −0.650 and the “SHAQ Visual Analogue Scale - Raynaud's, Percent Change from Baseline, Mean” value [1] was −32.40%. For the same molecule, the “SHAQ Visual Analogue Scale - Raynaud's, Percent Change from Baseline, Median” value [1] was −37.35%, the “SHAQ Visual Analogue Scale - Breathing Problems, Change from Baseline, Mean” value [2] was −0.388 and the “SHAQ Visual Analogue Scale - Breathing Problems, Change from Baseline, Median” value [2] was 0.000. The “SHAQ Visual Analogue Scale - Breathing Problems, Percent Change from Baseline, Mean” value [2] was −0.22%, the “SHAQ Visual Analogue Scale - Breathing Problems, Percent Change from Baseline, Median” value [2] was −16.00% and the “SHAQ Visual Analogue Scale - Finger Ulcers, Change from Baseline, Mean” value [2] was −0.643. For the same molecule, the “SHAQ Visual Analogue Scale - Finger Ulcers, Change from Baseline, Median” value [2] was 0.000, the “SHAQ Visual Analogue Scale - Finger Ulcers, Percent Change from Baseline, Mean” value [2] was −17.08% and the “SHAQ Visual Analogue Scale - Finger Ulcers, Percent Change from Baseline, Median” value [2] was −50.82%. The “SHAQ Visual Analogue Scale - Intestinal Problems, Change from Baseline, Mean” value [2] was −0.863, the “SHAQ Visual Analogue Scale - Intestinal Problems, Change from Baseline, Median” value [2] was −0.050 and the “SHAQ Visual Analogue Scale - Intestinal Problems, Percent Change from Baseline, Mean” value [2] was −43.69%. For the same molecule, the “SHAQ Visual Analogue Scale - Intestinal Problems, Percent Change from Baseline, Median” value [2] was −66.06%, the “SHAQ Visual Analogue Scale - Overall Disease Severity, Change from Baseline, Mean” value [2] was −1.450 and the “SHAQ Visual Analogue Scale - Overall Disease Severity, Change from Baseline, Median” value [2] was −1.550. For the same molecule, the “SHAQ Visual Analogue Scale - Overall Disease Severity, Percent Change from Baseline, Mean” value [2] was −61.10%, the “SHAQ Visual Analogue Scale - Overall Disease Severity, Percent Change from Baseline, Median” value [2] was −60.00% and the “SHAQ Visual Analogue Scale - Pain, Change from Baseline, Mean” value [2] was −0.375. The “SHAQ Visual Analogue Scale - Pain, Change from Baseline, Median” value [2] was −0.250, the “SHAQ Visual Analogue Scale - Pain, Percent Change from Baseline, Mean” value [2] was −23.98% and the “SHAQ Visual Analogue Scale - Pain, Percent Change from Baseline, Median” value [2] was −41.18%. The “SHAQ Visual Analogue Scale - Raynaud's, Change from Baseline, Mean” value [2] was −0.438, the “SHAQ Visual Analogue Scale - Raynaud's, Change from Baseline, Median” value [2] was −0.600 and the “SHAQ Visual Analogue Scale - Raynaud's, Percent Change from Baseline, Mean” value [2] was −18.62%. The “SHAQ Visual Analogue Scale - Raynaud's, Percent Change from Baseline, Median” value [2] was −33.33%, the “SHAQ Alternative Disability Index, Change from Baseline, Mean” value [3] was 0.083 and the “SHAQ Alternative Disability Index, Change from Baseline, Median” value [3] was 0.000. The “SHAQ Alternative Disability Index, In-Clinic Visit (Day 12), Mean” value [3] was 0.750, the “SHAQ Alternative Disability Index, In-Clinic Visit (Day 12), Median” value [3] was 1.000 and the “SHAQ Alternative Disability Index, Percent Change from Baseline, Mean” value [3] was 15.87%. For the same molecule, the “SHAQ Alternative Disability Index, Percent Change from Baseline, Median” value [3] was 15.87%, the “SHAQ Visual Analogue Scale - Finger Ulcers, Change from Baseline, Mean” value [3] was −0.567 and the “SHAQ Visual Analogue Scale - Finger Ulcers, Change from Baseline, Median” value [3] was −0.700. For the same molecule, the “SHAQ Visual Analogue Scale - Finger Ulcers, In-Clinic Visit (Day 12), Mean” value [3] was 0.367, the “SHAQ Visual Analogue Scale - Finger Ulcers, In-Clinic Visit (Day 12), Median” value [3] was 0.000 and the “SHAQ Visual Analogue Scale - Finger Ulcers, Percent Change from Baseline, Mean” value [3] was −69.44%. For the same molecule, the “SHAQ Visual Analogue Scale - Finger Ulcers, Percent Change from Baseline, Median” value [3] was −69.44%, the “SHAQ Visual Analogue Scale - Intestinal Problems, Change from Baseline, Mean” value [3] was −2.467 and the “SHAQ Visual Analogue Scale - Intestinal Problems, Change from Baseline, Median” value [3] was −3.000. The “SHAQ Visual Analogue Scale - Intestinal Problems, In-Clinic Visit (Day 12), Mean” value [3] was 1.467, the “SHAQ Visual Analogue Scale - Intestinal Problems, In-Clinic Visit (Day 12), Median” value [3] was 0.600 and the “SHAQ Visual Analogue Scale - Intestinal Problems, Percent Change from Baseline, Mean” value [3] was −66.06%. For the same molecule, the “SHAQ Visual Analogue Scale - Intestinal Problems, Percent Change from Baseline, Median” value [3] was −66.06%, the “SHAQ Visual Analogue Scale - Overall Disease Severity, Change from Baseline, Mean” value [3] was −1.067 and the “SHAQ Visual Analogue Scale - Overall Disease Severity, Change from Baseline, Median” value [3] was −1.500. For the same molecule, the “SHAQ Visual Analogue Scale - Overall Disease Severity, In-Clinic Visit (Day 12), Mean” value [3] was 2.433, the “SHAQ Visual Analogue Scale - Overall Disease Severity, In-Clinic Visit (Day 12), Median” value [3] was 1.900 and the “SHAQ Visual Analogue Scale - Overall Disease Severity, Percent Change from Baseline, Mean” value [3] was −35.44%. The “SHAQ Visual Analogue Scale - Overall Disease Severity, Percent Change from Baseline, Median” value [3] was −35.44%, the “SHAQ Visual Analogue Scale - Pain, Change from Baseline, Mean” value [3] was 0.100 and the “SHAQ Visual Analogue Scale - Pain, Change from Baseline, Median” value [3] was 0.000. The “SHAQ Visual Analogue Scale - Pain, In-Clinic Visit (Day 12), Mean” value [3] was 2.167, the “SHAQ Visual Analogue Scale - Pain, In-Clinic Visit (Day 12), Median” value [3] was 2.900 and the “SHAQ Visual Analogue Scale - Pain, Percent Change from Baseline, Mean” value [3] was 5.77%. For the same molecule, the “SHAQ Visual Analogue Scale - Pain, Percent Change from Baseline, Median” value [3] was 5.77%.
